Measured values reported in US20240400561A1, “NOVEL SUBSTITUTED SULFONYLUREA COMPOUNDS AS INHIBITORS OF INTERLEUKIN-1 ACTIVITY” (Viva Star Biosciences (Suzhou) Co., Ltd., priority 2021, published 2024).

Biological target: T1, NLRP3 (Homo sapiens, UniProt Q96P20)
T1 construct: Seed THP-1 cells (5.56*10^5 cells/mL) containing 1.0 ug/mL LPS; endogenous in cells; host or cells: THP-1 cells
Assay: THP-1 cell assay (LPS priming, nigericin), IL1β release by HTRF; called pyroptosis assay, THP IC50
Assay type: cell-based
Settings: NLRP3 inhibitory activity; THP-1 cells, 1.0 ug/mL LPS, compound 3 hrs, nigericin 5 uM 1 hr, IL1β in supernatant
Method: The following method was used for compound screening. • 1. Seed THP-1 cells (5.56*10^5 cells/mL) containing 1.0 ug/mL LPS (SIGMA, L6529) in 45 uL RPMI 1640 medium (without FBS) into 384-well plate (Thermo Scientific, 164688). • 2. Add 5 uL compound (10 doses starting from 5 uM, 1:3 dilution) or vehicle (0.05% DMSO in medium) to the appropriate wells. • 3. Centrifuge the plates at 1000 rpm for 2 mins and incubate for 3 hrs at 37° C., 5% CO2. • 4. Add 5 uL nigericin (MEC, HY-100381) (final conc. 5 uM) to sample wells and positive control wells; add 5 uL RPMI 1640 medium to negative control wells. • 5. Centrifuge plates at 1000 rpm for 2 mins and incubate for 1 hr at 37° C., 5% CO2. • 6. At the end of the incubation period, centrifuge plates at 1000 rpm for 6 mins and transfer 8 uL supernatant into 384-well assay plates (PerkinElmer, 6008280). • 7. Add 8 ul RPMI 1640 medium into each well and spin down for 10 secs. • 8. Prepare the standard solutions and pre-mixed IL1β antibody solution of Human […] kits (PerkinElmer, 62HIL1BPEH) according to the instruction. • 9. Add 16 uL standard solutions into clear wells of 384-well assay plates. • 10. Add 4 uL pre-mixed IL1β antibody solution to all wells including sample wells, positive control wells, negative control wells and standard solutions wells. • 11. Seal the plates, spin down for 10 secs, incubation for overnight at RT and read on an HTRF® compatible reader (BMG LABTECH, PHERAstar FS). • 12. The concentrations of IL1β for treated wells are calculated by the standard curve. • 13. The IC50 data is fitted to a non-liner regression equation (log inhibitor vs. response—Variable slope four parameters)).

T1 sequence (Q96P20 whole entry): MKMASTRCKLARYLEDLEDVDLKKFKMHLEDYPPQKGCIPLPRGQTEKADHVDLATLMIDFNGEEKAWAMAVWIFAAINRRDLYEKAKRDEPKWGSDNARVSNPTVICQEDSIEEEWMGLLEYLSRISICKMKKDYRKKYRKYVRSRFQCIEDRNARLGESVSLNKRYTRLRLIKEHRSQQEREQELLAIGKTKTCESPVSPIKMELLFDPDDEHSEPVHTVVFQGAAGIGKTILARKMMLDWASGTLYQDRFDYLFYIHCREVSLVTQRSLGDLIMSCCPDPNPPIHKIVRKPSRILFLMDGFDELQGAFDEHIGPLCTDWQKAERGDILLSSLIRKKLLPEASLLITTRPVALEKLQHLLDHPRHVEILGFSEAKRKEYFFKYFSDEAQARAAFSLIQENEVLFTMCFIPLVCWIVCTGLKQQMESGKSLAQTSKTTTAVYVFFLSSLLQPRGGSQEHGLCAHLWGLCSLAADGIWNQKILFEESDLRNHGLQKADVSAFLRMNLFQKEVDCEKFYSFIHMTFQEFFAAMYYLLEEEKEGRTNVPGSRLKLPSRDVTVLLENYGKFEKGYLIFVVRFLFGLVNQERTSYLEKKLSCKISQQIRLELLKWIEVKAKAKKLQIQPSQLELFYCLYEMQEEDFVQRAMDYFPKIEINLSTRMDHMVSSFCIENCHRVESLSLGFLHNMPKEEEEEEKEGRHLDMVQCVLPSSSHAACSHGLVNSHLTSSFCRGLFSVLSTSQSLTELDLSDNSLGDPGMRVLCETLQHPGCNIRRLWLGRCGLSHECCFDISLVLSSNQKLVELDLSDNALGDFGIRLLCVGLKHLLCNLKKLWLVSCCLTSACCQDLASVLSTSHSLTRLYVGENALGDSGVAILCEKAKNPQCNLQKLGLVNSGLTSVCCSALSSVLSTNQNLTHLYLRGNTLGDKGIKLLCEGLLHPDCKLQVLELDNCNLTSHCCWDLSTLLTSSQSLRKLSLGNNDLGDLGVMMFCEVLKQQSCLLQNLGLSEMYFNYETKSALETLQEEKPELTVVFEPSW

Row | Compound | IC50 [µM]
1 | CC(C)(O)c1csc(S(=O)(=O)NC(=O)Nc2c(-c3ccc4ncnn4c3)ccc3c2CCC3)c1 [Example 52, N-((5-([1,2,4]triazolo[1,5-a]pyridin-6-yl)-2,3-dihydro-1H-inden-4-yl)carbamoyl)-4-(2-hydroxypropan-2-yl)thiophene-2-sulfonamide] | ≤ 0.03
2 | CC(C)(O)c1csc(S(=O)(=O)NC(=O)Nc2c(-c3cncc4[nH]ccc34)ccc3c2CCC3)c1 [Example 45, N-((5-(1H-pyrrolo[2,3-c]pyridin-4-yl)-2,3-dihydro-1H-inden-4-yl)carbamoyl)-4-(2-hydroxypropan-2-yl)thiophene-2-sulfonamide] | 0.3 to 1
3 | Cn1ncc2c(-c3ccc4c(c3NC(=O)NS(=O)(=O)c3cc(C(C)(C)O)cs3)CCC4)ccnc21 [Example 48, 4-(2-hydroxypropan-2-yl)-N-((5-(1-methyl-1H-pyrazolo[3,4-b]pyridin-4-yl)-2,3-dihydro-1H-inden-4-yl)carbamoyl)thiophene-2-sulfonamide] | 0.03 to 0.3
4 | Cc1cc2c(c(NC(=O)NS(=O)(=O)C3CC(OC4CC4)C3)c1-c1ccnc3[nH]ccc13)CCC2 (stereo not shown) [Example 3, 3-cyclopropoxy-N-((6-methyl-5-(1H-pyrrolo[2,3-b]pyridin-4-yl)-2,3-dihydro-1H-inden-4-yl)carbamoyl)cyclobutane-1-sulfonamide] | 0.03 to 0.3
5 | CC(C)(O)c1csc(S(=O)(=O)NC(=O)Nc2c(-c3cnc4ccnn4c3)ccc3c2CCC3)c1 [Example 64, 4-(2-hydroxypropan-2-yl)-N-((5-(pyrazolo[1,5-a]pyrimidin-6-yl)-2,3-dihydro-1H-inden-4-yl)carbamoyl)thiophene-2-sulfonamide] | 1 to 2
6 | Cc1cc2c(c(NC(=O)NS(=O)(=O)c3cnn(CC4CC4)c3)c1-c1ccc3nccn3c1)CCC2 [Example 19, 1-(cyclopropylmethyl)-N-((5-(imidazo[1,2-a]pyridin-6-yl)-6-methyl-2,3-dihydro-1H-inden-4-yl)carbamoyl)-1H-pyrazole-4-sulfonamide] | ≤ 0.03
7 | CC(C)(O)c1csc(S(=O)(=O)NC(=O)Nc2c(-c3ccnc4c3ccn4C3COC3)ccc3c2CCC3)c1 [Example 59, 4-(2-hydroxypropan-2-yl)-N-((5-(1-(oxetan-3-yl)-1H-pyrrolo[2,3-b]pyridin-4-yl)-2,3-dihydro-1H-inden-4-yl)carbamoyl)thiophene-2-sulfonamide] | 0.03 to 0.3
8 | Cc1cc2c(c(NC(=O)NS(=O)(=O)c3cncc(N(C)C4CCC4)c3)c1-c1ccn3nccc3c1)CCC2 [Example 36, 5-(cyclobutyl(methyl)amino)-N-((6-methyl-5-(pyrazolo[1,5-a]pyridin-5-yl)-2,3-dihydro-1H-inden-4-yl)carbamoyl)pyridine-3-sulfonamide] | 0.03 to 0.3
9 | Cc1c(-c2ccc3c(c2NC(=O)NS(=O)(=O)c2cc(C(C)(C)O)cs2)CCC3)ccn2cncc12 [Example 73, 4-(2-hydroxypropan-2-yl)-N-((5-(8-methylimidazo[1,5-a]pyridin-7-yl)-2,3-dihydro-1H-inden-4-yl)carbamoyl)thiophene-2-sulfonamide] | 0.03 to 0.3
10 | Cc1cc2c(c(NC(=O)NS(=O)(=O)c3ccn(C[C@@H]4CCO4)n3)c1-c1ccc3ccnn3c1)CCC2 [Example 95, (S)—N-((6-methyl-5-(pyrazolo[1,5-a]pyridin-6-yl)-2,3-dihydro-1H-inden-4-yl)carbamoyl)-1-(oxetan-2-ylmethyl)-1H-pyrazole-3-sulfonamide] | 0.03 to 0.3
11 | Cc1cc2c(c(NC(=O)NS(=O)(=O)c3cnn(CC4CC4)c3)c1-c1ccn3ccnc3c1)CCC2 [Example 18, 1-(cyclopropylmethyl)-N-((5-(imidazo[1,2-a]pyridin-7-yl)-6-methyl-2,3-dihydro-1H-inden-4-yl)carbamoyl)-1H-pyrazole-4-sulfonamide] | ≤ 0.03

The next lines start with the values.

Row | IC50 [µM] | Compound
12 | ≤ 0.03 | Cc1cc2c(c(NC(=O)NS(=O)(=O)c3cc(OC4CC4)cnn3)c1-c1ccn3nccc3c1)CCC2 [Example 81, 5-cyclopropoxy-N-((6-methyl-5-(pyrazolo[1,5-a]pyridin-5-yl)-2,3-dihydro-1H-inden-4-yl)carbamoyl)-1H-pyridazine-3-sulfonamide]
13 | ≤ 0.03 | Cc1cc2c(c(NC(=O)NS(=O)(=O)c3ccn(C4CC4)n3)c1-c1ccn3cnnc3c1)CCC2 [Example 93, N-((5-([1,2,4]triazolo[4,3-a]pyridin-7-yl)-6-methyl-2,3-dihydro-1H-inden-4-yl)carbamoyl)-1-cyclopropyl-pyrazole-3-sulfonamide]
14 | ≤ 0.03 | CO[C@H](C)Cn1ccc(S(=O)(=O)NC(=O)Nc2c3c(cc(C)c2-c2ccn4nccc4c2)CCC3)n1 [Example 27, (R)-1-(2-methoxypropyl)-N-((6-methyl-5-(pyrazolo[1,5-a]pyridin-5-yl)-2,3-dihydro-1H-inden-4-yl)carbamoyl)-1H-pyrazole-3-sulfonamide]
15 | 0.03 to 0.3 | Cc1cc2c(c(NC(=O)NS(=O)(=O)c3ccnc(C4CCC4)c3)c1-c1ccn3nccc3c1)CCC2 [Example 38, 2-cyclobutyl-N-((6-methyl-5-(pyrazolo[1,5-a]pyridin-5-yl)-2,3-dihydro-1H-inden-4-yl)carbamoyl)pyridine-4-sulfonamide]
16 | ≤ 0.03 | Cc1cc2c(c(NC(=O)NS(=O)(=O)c3ccnc(OC4CC4)c3)c1-c1ccn3nccc3c1)CCC2 [Example 33, 2-cyclopropoxy-N-((6-methyl-5-(pyrazolo[1,5-a]pyridin-5-yl)-2,3-dihydro-1H-inden-4-yl)carbamoyl)pyridine-4-sulfonamide]
17 | 0.03 to 0.3 | Cc1cc2c(c(NC(=O)NS(=O)(=O)c3cncc(N(C)C4CC4)c3)c1-c1ccn3nccc3c1)CCC2 [Example 29, 5-(cyclopropyl(methyl)amino)-N-((6-methyl-5-(pyrazolo[1,5-a]pyridin-5-yl)-2,3-dihydro-1H-inden-4-yl)carbamoyl)pyridine-3-sulfonamide]
18 | 0.03 to 0.3 | Cc1cc2c(c(NC(=O)NS(=O)(=O)c3cc(CN(C)C)n(C4CC4)n3)c1-c1ccn3nccc3c1)CCC2 [Example 77, 1-cyclopropyl-5-((dimethylamino)methyl)-N-((6-methyl-5-(pyrazolo[1,5-a]pyridin-5-yl)-2,3-dihydro-1H-inden-4-yl)carbamoyl)-1H-pyrazole-3-sulfonamide]
19 | ≤ 0.03 | Cc1cc2cc(-c3c(C)cc4c(c3NC(=O)NS(=O)(=O)c3ccn(C5CC5)n3)CCC4)ccn2n1 [Example 88, 1-cyclopropyl-N-((6-methyl-5-(2-methylpyrazolo[1,5-a]pyridin-5-yl)-2,3-dihydro-1H-inden-4-yl)carbamoyl)-1H-pyrazole-3-sulfonamide]
20 | ≤ 0.03 | Cc1cc2c(c(NC(=O)NS(=O)(=O)c3cncc(NC4CC4)c3)c1-c1ccn3nccc3c1)CCC2 [Example 37, 5-(cyclopropylamino)-N-((6-methyl-5-(pyrazolo[1,5-a]pyridin-5-yl)-2,3-dihydro-1H-inden-4-yl)carbamoyl)pyridine-3-sulfonamide]
21 | ≤ 0.03 | Cc1cc2c(c(NC(=O)NS(=O)(=O)c3ccn(CC4CC4)n3)c1-c1ccn3nccc3c1)CCC2 [Example 10, 1-(cyclopropylmethyl)-N-((6-methyl-5-(pyrazolo[1,5-a]pyridin-5-yl)-2,3-dihydro-1H-inden-4-yl)carbamoyl)-1H-pyrazole-3-sulfonamide]
22 | ≤ 0.03 | Cc1cc2c(c(NC(=O)NS(=O)(=O)c3cnn(CC4CC4)c3)c1-c1ccn3nccc3c1)CCC2 [Example 6, 1-(cyclopropylmethyl)-N-((6-methyl-5-(pyrazolo[1,5-a]pyridin-5-yl)-2,3-dihydro-1H-inden-4-yl)carbamoyl)-1H-pyrazole-4-sulfonamide]
